In ChEMBL document CHEMBL3120074, “p-Terphenyl O-β-glucuronides, DNA topoisomerase inhibitors from Streptomyces sp. LZ35ΔgdmAI” (2014):
Active and inactive are the calls of the source. The calls are words filed in the database; no cut-off is given here.

Key:
Rhizoctonia solani = assay: Antifungal activity against Rhizoctonia solani GXE4 at 30 ug/disc after 48 hrs by paper disc diffusion assay; type: functional, organism-based
Globisporangium ultimum = assay: Antifungal activity against Pythium ultimum PR9.00318 at 30 ug/disc after 48 hrs by paper disc diffusion assay; type: functional, organism-based
[1] = Antifungal activity against Monilia albican ATCC 10231 at 30 ug/disc after 48 hrs by paper disc diffusion assay; type: functional
[2] = system: Mycolicibacterium smegmatis; assay: Antibacterial activity against Mycobacterium smegmatis MC2 155 at 30 ug/disc after 24 hrs by paper disc diffusion assay; type: functional; conditions: str. MC2 155, 24 h, read-out: DIZ
Bacillus subtilis = assay: Antibacterial activity against Bacillus subtilis ACCC 11060 at 30 ug/disc after 24 hrs by paper disc diffusion assay; type: functional; conditions: ACCC 11060, 24 h, read-out: DIZ
[3] = molecular target: DNA topoisomerase 2-alpha (Homo sapiens) (UniProt P11388); assay: Inhibition of human recombinant DNA topoisomerase 2alpha-mediated relaxation of supercoiled pBR322 DNA at 100 uM after 30 mins by agarose gel electrophoresis
Bos taurus = organism: Bos taurus; assay: Inhibition of calf thymus DNA topoisomerase 1-mediated relaxation of supercoiled pBR322 DNA at 100 uM after 30 mins by agarose gel electrophoresis

Sequence of DNA topoisomerase 2-alpha (Homo sapiens) (P11388 whole entry): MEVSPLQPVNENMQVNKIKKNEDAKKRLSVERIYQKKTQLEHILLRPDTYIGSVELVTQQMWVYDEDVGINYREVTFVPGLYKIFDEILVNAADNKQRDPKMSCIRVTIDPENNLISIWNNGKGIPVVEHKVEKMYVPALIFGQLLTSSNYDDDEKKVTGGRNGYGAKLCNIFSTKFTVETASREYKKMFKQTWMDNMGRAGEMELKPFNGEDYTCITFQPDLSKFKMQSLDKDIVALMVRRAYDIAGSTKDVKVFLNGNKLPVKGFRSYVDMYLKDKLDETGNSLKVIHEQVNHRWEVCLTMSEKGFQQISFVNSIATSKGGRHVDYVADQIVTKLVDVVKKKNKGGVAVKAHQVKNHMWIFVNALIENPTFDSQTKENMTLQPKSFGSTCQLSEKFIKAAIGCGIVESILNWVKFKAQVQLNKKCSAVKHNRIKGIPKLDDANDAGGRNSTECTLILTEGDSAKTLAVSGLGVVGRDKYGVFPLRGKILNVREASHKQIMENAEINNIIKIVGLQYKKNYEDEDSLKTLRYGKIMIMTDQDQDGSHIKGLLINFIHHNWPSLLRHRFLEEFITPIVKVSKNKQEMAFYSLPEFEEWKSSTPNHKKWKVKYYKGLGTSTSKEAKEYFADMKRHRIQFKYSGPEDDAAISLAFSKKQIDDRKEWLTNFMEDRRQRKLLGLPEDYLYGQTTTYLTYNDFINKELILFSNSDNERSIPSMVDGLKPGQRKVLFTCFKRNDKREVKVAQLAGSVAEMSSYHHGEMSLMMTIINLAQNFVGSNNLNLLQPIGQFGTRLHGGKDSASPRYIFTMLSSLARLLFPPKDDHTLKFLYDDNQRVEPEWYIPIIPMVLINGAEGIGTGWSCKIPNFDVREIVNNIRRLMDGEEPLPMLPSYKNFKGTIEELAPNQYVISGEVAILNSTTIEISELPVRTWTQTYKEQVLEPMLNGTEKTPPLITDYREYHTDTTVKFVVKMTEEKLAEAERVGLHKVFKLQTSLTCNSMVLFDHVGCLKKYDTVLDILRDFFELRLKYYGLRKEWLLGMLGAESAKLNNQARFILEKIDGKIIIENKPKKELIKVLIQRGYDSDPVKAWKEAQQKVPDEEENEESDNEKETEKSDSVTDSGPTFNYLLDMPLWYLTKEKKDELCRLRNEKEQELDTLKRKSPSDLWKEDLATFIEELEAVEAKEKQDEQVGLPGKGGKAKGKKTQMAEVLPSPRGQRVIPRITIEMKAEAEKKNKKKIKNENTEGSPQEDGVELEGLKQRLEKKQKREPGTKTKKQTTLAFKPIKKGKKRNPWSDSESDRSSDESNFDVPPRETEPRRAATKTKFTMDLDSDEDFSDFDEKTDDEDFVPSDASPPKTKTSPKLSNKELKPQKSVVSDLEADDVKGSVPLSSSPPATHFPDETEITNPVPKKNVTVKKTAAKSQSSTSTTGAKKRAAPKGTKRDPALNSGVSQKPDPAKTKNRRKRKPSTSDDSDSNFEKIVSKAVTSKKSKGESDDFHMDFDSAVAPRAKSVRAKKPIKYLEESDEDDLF

SMILES	Activity (Rhizoctonia solani)	Activity (Globisporangium ultimum)	Activity [1]	zone of inhibition at 30 µg/disc [2] [mm]	zone of inhibition at 30 µg/disc (Bacillus subtilis) [mm]	inhibition [3]	inhibition (Bos taurus)
O=C(O)[C@H]1O[C@@H](Oc2c(-c3ccccc3)cc(O)c(-c3ccccc3)c2O)[C@H](O)[C@@H](O)[C@@H]1O	inactive	inactive	inactive	11.2	15.8	Active	
Cn1c(=O)sc2c(-c3ccccc3)c(O)c(O[C@@H]3O[C@H](C(=O)O)[C@@H](O)[C@H](O)[C@H]3O)c(-c3ccccc3)c21	inactive	inactive	inactive			inactive	inactive
COC(=O)[C@H]1O[C@@H](Oc2c(-c3ccccc3)cc(O)c(-c3ccccc3)c2O)[C@H](O)[C@@H](O)[C@@H]1O	inactive	inactive	inactive	12	14	Active	Active
O=C(O)[C@H]1O[C@@H](Oc2c(O)c(-c3ccccc3)c3scnc3c2-c2ccccc2)[C@H](O)[C@@H](O)[C@@H]1O	inactive	inactive	inactive			inactive	inactive
COc1c(-c2ccccc2)cc(O[C@@H]2O[C@H](C(=O)O)[C@@H](O)[C@H](O)[C@H]2O)c(-c2ccccc2)c1O	inactive	inactive	inactive			Active	
